Results from patent publication US20240344032A1, “ORGANOID PRODUCTION METHOD, CULTURE MEDIUM FOR ORGANOID PRODUCTION, ORGANOID, AND TEST SUBSTANCE EVALUATION METHOD” (JSR CORPORATION, priority 2021, published 2024).
Where no end group is shown, it is not given here. [ ]: non-standard residue; d: D form. The star is where a group is joined. X1 = 4‑(carboxymethyl)piperazine‑1‑carbonyl, O=C(O)CN1CCN(C(=O)*)CC1; 1Nal = N[C@@H](Cc1cccc2ccccc12)C(=O)O; Gly(NCH2CH2Ph) = O=C(O)CNCCc1ccccc1; 4Pal = N[C@@H](Cc1ccncc1)C(=O)O

Key:
[1] = tested on: Human colon epithelial cells (including human colon stem cells); experiment: Culturing of human colon epithelial cells (organoid formation); format: cell-based; conditions: 0.5 nM, 5 nM, or 50 nM in culture medium, 7 days, optical microscope, FIG. 1
Procedure: To a basal medium, each component was added to have the concentration shown in Table 3 below to prepare a culture medium. In Table 3, “CM” means conditioned medium. Advanced DMEM/F12 was used as a basal medium. As the peptide, peptide names #7401 and #2392 were used (hereinafter, each may be referred to as “#7401 peptide” and “#2392 peptide”). Regarding the #7401 peptide, a chemical formula is shown in Formula (2-1), and an amino acid sequence (SEQ ID NO: 3) is shown in Formula (2-2). In addition, regarding the #2392 peptide, a chemical formula is shown in Formula (3-1), and an amino acid sequence (SEQ ID NO: 4) is shown in Formula (3-2).
(§1) Human colon epithelial cells (including human colon stem cells) were dispersed in Matrigel (registered trademark, manufactured by BD Biosciences). Subsequently, the dispersion product was seeded into each well of a 48-well tissue culture plate and incubated at 37° C. for 10 minutes to polymerize Matrigel (registered trademark).
Subsequently, the culture medium (300 μL/well) prepared in Experimental Example 1 was overlaid on each well, and culturing was carried out at 37° C. for 7 days in the presence of 5% by volume of CO2. The culture medium was exchanged every two or three days.

[2] = tested on: Human small intestinal epithelial cells (including human small intestinal stem cells); experiment: Examination of EGFR signal and p38 MAPK signal: culture of small intestinal epithelial cells, bright field observation and Lgr5-tdTomato reporter assay; format: cell-based
Procedure: Upregulation of EGFR signal is known to induce cell proliferation. Therefore, the cell proliferative properties in a state where there was no EGFR signal were examined. […] Therefore, culturing was examined in the presence or absence of the p38 MAPK signal.
as §1, with “To the basal medium (Advanced DMEM/F12), each component was added to the concentration shown in Table 5 below to prepare a culture medium. Human” for “Human”, “small intestinal” for “colon”
Subsequently, 300 μL/well of a culture medium was overlaid, and culturing was carried out at 37° C. for 10 days in the presence of 5% by volume of CO2. The culture medium was exchanged every two or three days. Cells were cultured for 10 days in a culture medium containing EGF and cultured for 14 days in a culture medium containing no EGF. Thereafter, bright field observation with an optical microscope in the well and Lgr5-tdTomato reporter assay were carried out.

[3] = tested on: primary human hepatocytes; experiment: Culturing of human hepatocytes (proliferation of cells); format: cell-based
Procedure: Cryopreserved primary human hepatocytes in suspension (HEP187-S, manufactured by Biopredic International) were thawed in a water bath at 37° C., suspended in a 50 mL tube to which a serum-free culture medium (a culture medium obtained by adding HEPES, GLUTAMAX, and PENICILIN/STEREPTOMYCIN to Advanced DMEM/F12) had been added, and centrifuged. After the centrifugation, the supernatant was removed, and then the resultant product was suspended in a serum-free culture medium to prepare a human hepatocyte suspension. 20,000 human hepatocytes were collected from the suspension, mixed with 50 μL of Matrigel (registered trademark, manufactured by BD Biosciences), seeded in a 24-well tissue culture plate, and incubated at 37° C. for 10 minutes until Matrigel (registered trademark) was completely polymerized. After the polymerization, a culture medium (500 μL/well) prepared by adding each component to a basal medium to have the concentration shown in Table 4 below was overlaid, and culturing was carried out at 37° C. in the presence of 5% by volume of CO2. Advanced DMEM/F12 was used as a basal medium. The culture medium was exchanged every two or three days.
FIG. 2 is a graph showing a result of measuring the proliferation of cells.
FIG. 3 is a graph showing a result of measuring proliferation of cells in a case where the concentration of the #7401 peptide was set to be low.

[4] = tested on: p38 MAPK signaling pathway; conditions: reported in Vogt J., et al., Cell Signal., 2011; cited from earlier work
[5] = tested on: ALK5, VEGFR, RIPK2, MINK1, p38a MAPK, PKD1, and FGF-R1; conditions: known from the literature; cited from earlier work

Row | Compound | organoid formation efficiency compared with A83-01 [1] | cell proliferative properties and colony forming properties ([2]; medium containing EGF (50 ng/mL), no SB202190, 500 nM and 5000 nM, 10 days, FIG. 5) | stem cell properties (Lgr5-tdTomato reporter) versus 50 nM or 500 nM #7401 peptide ([2]; medium containing no EGF, no SB202190, 500 nM and 5000 nM, 14 days, FIG. 6) | stem cell properties (Lgr5-tdTomato reporter), 5000 nM versus 500 nM ([2]; medium containing no EGF, no SB202190, 14 days, FIG. 6) | proliferation of cells ([3]; 5 μM added to the culture medium, FIG. 2) | inhibition of p38 MAPK signaling pathway [4] | action on ALK5 and off-target kinases/receptors [5] | proliferation of cells ([3]; 50 nM in the culture medium, FIG. 3)
1 | #2392 peptide: cyclic peptide, chemical formula in Formula (3-1), amino acid sequence (SEQ ID NO: 4) in Formula (3-2) (F[1Nal]VVNVTDD[Gly(NCH2CH2Ph)]V[1Nal]THVCG; bridge (positions not given here); not fully specified (bridges)) | organoids can be formed with an efficiency equal to or higher than that in a case where A83-01 was added | – | – | – | – | – | – | –
2 | Cc1cccc(-c2nn(C(=S)Nc3ccccc3)cc2-c2ccnc3ccccc23)n1 [Peptide A83-01] | – | the cell proliferative properties and the colony forming properties were concentration-dependently inhibited | higher stem cell properties | higher stem cell properties | proliferation of cells is not observed after 35 days | inhibits p38 MAPK signaling pathway | strongly act | –
3 | #7401 peptide: cyclic peptide, chemical formula in Formula (2-1), amino acid sequence (SEQ ID NO: 3) in Formula (2-2) (F[1Nal]VVNV[4Pal]DD[Gly(NCH2CH2Ph)]V[1Nal]THK(X1)CG; bridge (positions not given here); not fully specified (bridges)) | organoids can be formed with an efficiency equal to or higher than that in a case where A83-01 was added | – | – | – | – | – | – | cells can sufficiently proliferate
